Results from ChEMBL document CHEMBL5223086, “Recent Progress and Clinical Development of Inhibitors that Block MDM4/p53 Protein-Protein Interactions” (J Med Chem, 2021).
Values belong to the molecule of their own block, whether it stands above or below them. Peptide text beside a SMILES is read from it.

Experiments:
[1] = target: T1, Tumour suppressor protein p53/Mdm4 (Homo sapiens, UniProt O15151+P04637); assay: Inhibition of human MDM4/p53 interaction by TR-FRET assay; assay type: protein assay
T1 sequence (P04637 whole entry, one chain of several): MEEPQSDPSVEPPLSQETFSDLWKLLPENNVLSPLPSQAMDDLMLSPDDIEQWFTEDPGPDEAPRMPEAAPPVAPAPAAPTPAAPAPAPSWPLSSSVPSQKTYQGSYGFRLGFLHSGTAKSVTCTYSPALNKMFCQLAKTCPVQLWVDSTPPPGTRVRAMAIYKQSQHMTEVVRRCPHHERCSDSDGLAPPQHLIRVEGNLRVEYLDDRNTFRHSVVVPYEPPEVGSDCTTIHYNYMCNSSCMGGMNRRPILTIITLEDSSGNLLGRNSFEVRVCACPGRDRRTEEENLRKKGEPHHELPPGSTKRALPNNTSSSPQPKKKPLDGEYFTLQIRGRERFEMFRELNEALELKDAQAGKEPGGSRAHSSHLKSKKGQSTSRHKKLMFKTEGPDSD

Protein Mdm4 [2] = target: T2, Protein Mdm4 (Homo sapiens, UniProt O15151); assay: Binding affinity to human MDM4 assessed as inhibition constant
T2 sequence (O15151 whole entry): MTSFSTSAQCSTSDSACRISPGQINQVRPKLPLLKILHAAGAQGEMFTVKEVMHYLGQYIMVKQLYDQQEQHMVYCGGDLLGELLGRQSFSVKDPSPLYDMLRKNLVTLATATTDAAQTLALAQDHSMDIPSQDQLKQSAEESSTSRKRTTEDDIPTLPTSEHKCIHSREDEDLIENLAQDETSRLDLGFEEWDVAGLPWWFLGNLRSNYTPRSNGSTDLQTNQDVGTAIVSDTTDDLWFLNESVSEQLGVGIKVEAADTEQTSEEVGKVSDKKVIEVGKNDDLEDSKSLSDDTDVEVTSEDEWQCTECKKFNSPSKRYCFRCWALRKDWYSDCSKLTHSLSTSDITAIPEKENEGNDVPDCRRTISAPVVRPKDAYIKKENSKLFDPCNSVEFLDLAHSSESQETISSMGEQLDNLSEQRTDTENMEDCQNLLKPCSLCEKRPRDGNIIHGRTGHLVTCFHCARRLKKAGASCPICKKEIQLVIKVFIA

[3] = target: T3, E3 ubiquitin-protein ligase Mdm2 (Homo sapiens, UniProt Q00987); assay: Inhibition of human MDM2 by TR-FRET assay
T3 sequence (Q00987 whole entry): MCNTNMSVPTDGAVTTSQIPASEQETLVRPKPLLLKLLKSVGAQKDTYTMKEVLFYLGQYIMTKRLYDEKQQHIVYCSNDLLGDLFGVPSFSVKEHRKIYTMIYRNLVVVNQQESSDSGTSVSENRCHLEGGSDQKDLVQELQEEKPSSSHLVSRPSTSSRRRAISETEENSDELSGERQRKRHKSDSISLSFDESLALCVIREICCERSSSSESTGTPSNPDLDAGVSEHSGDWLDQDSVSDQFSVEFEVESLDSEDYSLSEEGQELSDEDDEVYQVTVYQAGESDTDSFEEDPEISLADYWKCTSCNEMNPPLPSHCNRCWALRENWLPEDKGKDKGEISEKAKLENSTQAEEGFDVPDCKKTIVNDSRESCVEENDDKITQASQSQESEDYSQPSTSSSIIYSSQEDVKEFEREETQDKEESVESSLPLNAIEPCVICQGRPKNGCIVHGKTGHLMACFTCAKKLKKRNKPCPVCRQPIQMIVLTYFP

[4] = target: T1, Tumour suppressor protein p53/Mdm4; assay: Inhibition of human MDM4/p53 interaction by FP assay; assay type: protein assay
Protein Mdm4 [5] = target: T2, Protein Mdm4; assay: Inhibition of human MDM4 by TR-FRET assay
Protein Mdm4 [6] = target: T2, Protein Mdm4; assay: Inhibition of human his-tagged MDM4 assessed as dissociation constant by ITC assay
MCF7 [7] = assay: Anticancer activity against human MCF7 cells assessed as cell viability at 30 mg/kg by MTT assay relative to contol; conditions: MCF7, read-out: TGI
[8] = target: T3, E3 ubiquitin-protein ligase Mdm2; assay: Inhibition of human MDM2
Protein Mdm4 [9] = target: T2, Protein Mdm4; assay: Inhibition of human MDM4
[10] = target: T3, E3 ubiquitin-protein ligase Mdm2; assay: Binding affinity to human MDM2 assessed as dissociation constant
[11] = target: T1, Tumour suppressor protein p53/Mdm4; assay: Inhibition of human MDM4/p53 interaction by SPR analysis; assay type: protein assay
Protein Mdm4 [12] = target: T2, Protein Mdm4; assay: Inhibition of MDM4 assessed as dissociation constant
MCF7 [13] = assay: Anticancer activity against […] relative to contol; assay type: functional; conditions: read-out: TGI
Protein Mdm4 [14] = target: T2, Protein Mdm4; assay: Inhibition of human MDM4 by ELISA assay

IC50 [1]: 1300 nM
Molecule: COc1nc(N(C)C)ncc1-c1nc2c(n1C(C)C)[C@H](c1ccc(C#N)cc1)N(c1cc(Cl)cn(C)c1=O)C2=O

IC50 (Protein Mdm4 [2]): 3000 nM
Molecule: COc1ncc(-c2nc3c(n2C(C)C)C(c2ccc(Cl)cc2)N(c2cc(Cl)cn(C)c2=O)C3=O)c(OC)n1 (stereo unspecified)

IC50 [3]: > 50000 nM
Molecule: COc1cccc2c(C(=O)N[C@H]3CCN(c4ccc(C)cc4)C3)c[nH]c12

Ki [4]: 3730 nM
Molecule: Cc1cc(Cl)ccc1NCc1ccc(CN(C=O)C(C(=O)NC(C)(C)C)c2c(C(=O)O)[nH]c3cc(Cl)ccc23)cc1 (stereo unspecified)

IC50 (Protein Mdm4 [5]): 17 nM
Molecule: C[C@@H](c1cccc(Cl)c1)n1cnc(-c2ccccc2)c1-c1c(C(=O)Nc2cc(C(=O)O)ccc2N2CCC(N3CCCOC3=O)CC2)[nH]c2cc(Cl)ccc12

Kd (Protein Mdm4 [6]): 27 nM
Molecule: CC(C)(C)Oc1cc(C(=O)CC(N)=O)ccc1C1=N[C@@H](c2ccc(C(=O)O)cc2)[C@@H](c2c[nH]c3ccccc23)N1C(=O)N1CCNC(=O)C1

Molecule: CC(=O)N[C@@H](CC(C)C)C(=O)N[C@H](C(=O)N[C@@H](Cc1ccccc1)C(=O)N[C@]1(C)CCCCCC/C=C/CCC[C@@](C)(C(=O)N[C@@H](C)C(=O)N[C@@H](C)C(=O)N[C@@H](C)C(=O)N[C@@H](C)C(=O)N[C@H](C)C(N)=O)NC(=O)[C@H](CC(C)C)NC(=O)[C@H](CCC(N)=O)NC(=O)[C@H](C)NC(=O)[C@H](Cc2c[nH]c3ccccc23)NC(=O)[C@H](Cc2ccc(O)cc2)NC(=O)[C@H](C)NC1=O)[C@@H](C)O
inhibition in vivo at 30 mg/kg (MCF7 [7]): 61%

Molecule: COOc1cc(/C=C2\C(=O)N(c3ccccc3)N=C2C)cc(Cl)c1OCC(=O)OC
EC50 [8]: 26000 nM | EC50 (Protein Mdm4 [9]): 2300 nM

IC50 [1]: 580 nM
Molecule: COc1ncc(-c2nc3c(n2C(C)C)[C@H](c2ccc(C#N)cc2)N([C@@H](C)c2cccc(Cl)c2)C3=O)c(OC)n1

IC50 (Protein Mdm4 [5]): 145 nM
Molecule: C[C@@H](c1cccc(Cl)c1)n1cnc(-c2ccccc2)c1-c1c(C(=O)NCCN2CCN(C3CCCCC3)CC2)[nH]c2cc(Cl)ccc12

Ki [10]: 5500 nM
Molecule: O=C(CN(Cc1ccc(Cl)cc1)C(=O)c1cc2ccccc2[nH]1)NC1CCCCC1

IC50 [11]: 11.4 nM
Molecule: CC(C)C[C@H](NC(=O)[C@H](CS)NC(=O)[C@H](CCCNC(=N)N)NC(=O)[C@H](Cc1c[nH]c2ccccc12)NC(=O)[C@H](Cc1ccc(O)cc1)NC(=O)[C@H](CS)NC(=O)[C@H](CC(C)C)NC(=O)[C@H](Cc1ccccc1)NC(=O)[C@@H](NC(=O)[C@H](CCC(=O)O)NC(=O)[C@@H]1CCCN1C(=O)[C@H](C)NC(=O)[C@H](CCCCN)NC(=O)[C@H](CS)NC(=O)[C@H](CC(N)=O)NC(=O)[C@@H](N)CS)[C@@H](C)O)C(=O)N[C@@H](CCC(N)=O)C(=O)N[C@@H](Cc1c[nH]cn1)C(N)=O (H-CNCKAPETFLCYWRCLQH-NH2)

Kd (Protein Mdm4 [12]): < 100 nM
Molecule: COc1cc(C(=O)O)ccc1NC(=O)[C@@H]1N[C@@H](CC(C)(C)C)[C@](C#N)(c2ccc(Cl)cc2F)[C@H]1c1cccc(Cl)c1F [IDASANUTLIN]

Molecule: CCOc1cc(C(C)(C)C)ccc1C1=N[C@@](C)(c2ccc(Cl)cc2)[C@@](C)(c2ccc(Cl)cc2)N1C(=O)N1CCN(CCCS(C)(=O)=O)CC1 [RO-5045337]
inhibition in vivo (MCF7 [13]): 61%

IC50 (Protein Mdm4 [14]): 110 nM
Molecule: H-ETFEHWWSQLLS-OH
